According to US9650372B2, “Molecules having pesticidal utility, and intermediates, compositions, and processes, related thereto” (priority 2015, dated 2017):

Legend:
[1] = tested on: Beet Armyworm (Spodoptera exigua, LAPHEG); experiment: Bioassay on Beet Armyworm (BAW), 128-well diet tray assay; type: in vivo; settings: 168 h, 50 μg/cm^2 on artificial diet, second instar larvae, 25° C., five to seven days, average of eight wells, read-out: BAW % Control (or Mortality) rating
Protocol: (§1) Certain molecules disclosed in this document were tested against BAW and CL using procedures described in the following examples. In the reporting of the results, the “BAW & CL Rating Table” was used (See Table Section).
Bioassays on BAW were conducted using a 128-well diet tray assay. One to five second instar BAW larvae were placed in each well (3 mL) of the diet tray that had been previously filled with 1 mL of artificial diet to which 50 μg/cm^2 of the test molecule (dissolved in 50 μL of 90:10 acetone-water mixture) had been applied (to each of eight wells) and then allowed to dry. Trays were covered with a clear self-adhesive cover, vented to allow gas exchange, and held at 25° C., 14:10 light-dark for five to seven days. Percent mortality was recorded for the larvae in each well; activity in the eight wells was then averaged. The results are indicated in the table entitled “Table ABC: Biological Results” (See Table Section).

[2] = tested on: Cabbage Looper (Trichoplusia ni, TRIPNI); experiment: Bioassay on Cabbage Looper (CL), 128-well diet tray assay; type: in vivo; settings: 168 h, 50 μg/cm^2 on artificial diet, second instar larvae, 25° C., five to seven days, average of eight wells, read-out: CL % Control (or Mortality) rating
Protocol: as §1
Bioassays on CL were conducted using a 128-well diet tray assay. One to five second instar CL larvae were placed in each well (3 mL) of the diet tray that had been previously filled with 1 mL of artificial diet to which 50 μg/cm^2 of the test molecule (dissolved in 50 μL of 90:10 acetone-water mixture) had been applied (to each of eight wells) and then allowed to dry. Trays were covered with a clear self-adhesive cover, vented to allow gas exchange, and held at 25° C., 14:10 light-dark for five to seven days. Percent mortality was recorded for the larvae in each well; activity in the eight wells was then averaged. The results are indicated in the table entitled “Table ABC: Biological Results” (See Table Section).

Cc1ccc(C(C)C)c(N2C(=O)CS/C2=N\C(=O)Nc2ccc(-c3ncn(CCc4ccc(OC(F)(F)F)cc4)n3)cc2)c1 [Molecule F1, (Z)-1-(3-(2-isopropyl-5-methylphenyl)-4-oxothiazolidin-2-ylidene)-3-(4-(1-(4-(trifluoromethoxy)phenethyl)-1H-1,2,4-triazol-3-yl)phenyl)urea]
mortality at 50 µg/cm2 [1]: 50 to 100%
mortality at 50 µg/cm2 [2]: 50 to 100%

CC(C)c1ccccc1N1C(=O)CS/C1=N\C(=O)Nc1ccc(-c2ncn(CCCC(F)(F)C(F)(F)F)n2)cc1 [Molecule F2, (Z)-1-(3-(2-Isopropylphenyl)-4-oxothiazolidin-2-ylidene)-3-(4-(1-(4,4,5,5,5-pentafluoropentyl)-1H-1,2,4-triazol-3-yl)phenyl)urea]
mortality at 50 µg/cm2 [1]: 50 to 100%
mortality at 50 µg/cm2 [2]: 50 to 100%

CC(C)c1ccccc1N1C(=O)CS/C1=N\C(=O)Nc1ccc(-c2ncn(Cc3ccc(C(F)(F)F)cc3)n2)cc1 [Molecule F3, (Z)-1-(3-(2-Isopropylphenyl)-4-oxothiazolidin-2-ylidene)-3-(4-(1-(4-(trifluoromethyl)benzyl)-1H-1,2,4-triazol-3-yl)phenyl)urea]
mortality at 50 µg/cm2 [1]: 0 to 50%
mortality at 50 µg/cm2 [2]: 50 to 100%

CC(C)c1ccccc1N1C(=O)CS/C1=N\C(=O)Nc1ccc(-c2ncn(CCCCC(F)(F)F)n2)cc1 [Molecule F4, (Z)-1-(3-(2-Isopropylphenyl)-4-oxothiazolidin-2-ylidene)-3-(4-(1-(5,5,5-trifluoropentyl)-1H-1,2,4-triazol-3-yl)phenyl)urea]
mortality at 50 µg/cm2 [1]: 50 to 100%
mortality at 50 µg/cm2 [2]: 50 to 100%

CC(C)c1ccccc1N1C(=O)CS/C1=N\C(=O)Nc1ccc(-c2ncn(CCC(F)(F)C(F)(F)C(F)(F)F)n2)cc1 [Molecule F5, (Z)-1-(4-(1-(3,3,4,4,5,5,5-heptafluoropentyl)-1H-1,2,4-triazol-3-yl)phenyl)-3-(3-(2-isopropylphenyl)-4-oxothiazolidin-2-ylidene)urea]
mortality at 50 µg/cm2 [1]: 50 to 100%
mortality at 50 µg/cm2 [2]: 50 to 100%
